Experimental data taken from PubChem BioAssay AID977621 (Broad Institute, 2014).
Records with an inconclusive call do not appear. Calls of active or inactive are those of the source.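 The calls were made as follows: active = Wild-type ribosome reporter drop at least double the humanized mutant ribosome reporter drop, growth loss under a set limit; inconclusive = no clear call, values can overlap the other calls; inactive = the rest.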

Test system: E. coli wild-type GFP strain growth, fluorescence, 24 h
Test: growth inhibition of wild-type GFP E. coli, dose response, H69 mutant RFP, cherry-pick (AID 977621);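 also: wild-type GFP and H69 mutant RFP strains grown together 50/50 in each well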
[1] = E. coli mixed culture, 24 h, measured here: total growth OD600, test 2

| Structure (SMILES) | AC50 | AC50 [1] [µM] | AC50 (E. coli mixed culture, 24 h, measured here: total growth OD600, test 1) [µM] |
| --- | --- | --- | --- |
| CCOC(=O)c1nc(C)sc1-c1ccnn1S(=O)(=O)c1ccc(C)cc1 | > 100 µM (inactive) | – | – |
| COc1ccc(C(=O)N(c2ccccc2)c2nccc3ccccc23)cc1OC | > 100 µM (inactive) | – | – |
| O=C(NCCc1ccccc1)c1ccc2c(c1)S(=O)(=O)c1ccccc1C2=O | > 100 µM (inactive) | 41.5 | – |
| O=C(NCCCCc1ccccc1)c1cccc(NC(=O)C2CCCCC2)c1 | > 100 µM (inactive) | 46.8 | – |
| CCC(C(=O)NC1CCCC1)n1c(-c2ccnc3ccccc23)nc2ccccc21 (configuration not stated) | – | > 100 | – |
| O=C(CN1C(=O)c2ccccc2C1=O)Nc1cccc(S(=O)(=O)Nc2ccccc2Cl)c1 | > 100 µM (inactive) | – | – |
| N#CCC(=O)Nc1ccc(C(=O)OCC(=O)Nc2ccc3ccccc3c2)cc1 | > 100 µM (inactive) | – | – |
| COc1ccc(OC)c(S(=O)(=O)Nc2cccc3ccccc23)c1 | > 100 µM (inactive) | – | – |
| CCC(=O)N(CCC(c1ccco1)C(C)C)Cc1ccccc1 (configuration not stated) | > 100 µM (inactive) | – | – |
| CC1CCCN(c2ccc(C(=O)NCCc3ccccc3)cn2)C1 (configuration not stated) | – | > 100 | – |
| O=C1c2ccccc2NC(c2cccc(F)c2)N1Cc1ccco1 (configuration not stated) | – | 9.09 | – |
| Cc1ccccc1OCC(O)Cn1c(NCc2ccco2)nc2c1c(=O)n(C)c(=O)n2C (configuration not stated) | > 100 µM (inactive) | > 100 | – |
| Cc1cc(C)c(OCCNC(=O)c2ccccc2Sc2ccccc2C#N)c(C)c1 | > 100 µM (inactive) | – | 5.7 |
| O=C(Nc1ccc2nc3n(c(=O)c2c1)CCCCC3)c1c(F)ccc([N+](=O)[O-])c1F | > 100 µM (inactive) | – | – |
| Cc1nnc2sc(SCC(=O)Nc3ccc(Br)cc3)nn2c1=O | – | > 100 | – |
| CCc1cc2c(NC(Cc3c[nH]c4ccccc34)C(=O)O)nc(C)nc2s1 (configuration not stated) | > 100 µM (inactive) | – | – |
| COc1cccc(NC(=O)C(c2ccccc2)N2CCN(c3ccccn3)CC2)c1 (configuration not stated) | – | > 100 | – |
| Cc1ccc(NC(=O)c2ccc(Br)o2)cc1S(=O)(=O)N(C)C | > 100 µM (inactive) | > 100 | – |
| O=C(c1ccco1)N(CCCN1CCOCC1)c1nc(-c2ccc(F)cc2)cs1 | > 100 µM (inactive) | – | – |

| Structure (SMILES) | AC50 | AC50 [1] [µM] | AC50 (E. coli mixed culture, 24 h, measured here: total growth OD600, test 1) [µM] |
| --- | --- | --- | --- |
| O=C(NCc1ccco1)c1ccc2ccccc2n1 | – | > 100 | – |
| Cc1nc(-c2ccc([N+](=O)[O-])cc2)c(-c2ccccc2)o1 | > 100 µM (inactive) | – | – |
| CS(=O)(=O)c1cccc(C(=O)Nc2cccc(-c3nc4ccccc4[nH]3)c2)c1 | > 100 µM (inactive) | – | – |
| CN(Cc1ccc(Cl)s1)C(=O)CNC(=O)CNC(=O)c1ccc(Cl)cc1Cl | > 100 µM (inactive) | – | – |
| CC(CCc1ccccc1)NC(=O)CNC(=O)COc1ccccc1 (configuration not stated) | – | > 100 | – |
| CSc1ccccc1OCc1cc(C(=O)N(C)Cc2nonc2C)no1 | – | > 100 | – |
| CCOc1ccc(CCNC(=O)CCn2ccc3cc(S(=O)(=O)N4CCCC4)ccc32)cc1 | > 100 µM (inactive) | 41.4 | – |
| COc1cc(C(=O)Nc2nnc(S(=O)(=O)N3CCCCCC3)s2)cc(OC)c1OC | > 100 µM (inactive) | 36.3 | – |
| CN(Cc1ccccc1)C(=O)c1[nH]cnc1C(=O)NCc1ccccc1 | > 100 µM (inactive) | > 100 | – |
| C[C@@H]1NS(=O)(=O)c2c(F)cccc2O[C@@H]1c1ccccc1 | > 100 µM (inactive) | – | – |
| CC(=O)NCCOc1nc(N2CCCCC2)nc(N2CCCCC2)n1 | – | > 100 | – |
| Nc1nc(SCc2ccccc2)c2ncn(Cc3ccccc3)c2n1 | > 100 µM (inactive) | 41.2 | – |
| Cc1noc(C)c1NC(=O)Nc1ccc2c(c1)C(=O)N([C@H](C)CO)C[C@H](C)[C@@H](CN(C)C(=O)Nc1ccc3c(c1)OCO3)OCCCC[C@@H](C)O2 | – | > 92 | – |
| CCn1nnc(NC(=O)c2ccc([N+](=O)[O-])o2)n1 | > 100 µM (inactive) | – | – |
| COc1cccc(NC(=O)C2CCC(CNS(=O)(=O)c3cccs3)CC2)c1 (configuration not stated) | > 100 µM (inactive) | – | – |
| O=S(=O)(c1ccc(F)cc1)N1C[C@@H]2N[C@H](C1)C2c1ccc(/C=C/c2ccccc2)cc1 (some centres not stated) | – | 41.3 | – |
| CCOc1ccccc1/C=C/c1cc(C(=O)O)c2ccccc2n1 | – | 35.3 | – |
| CCOC(=O)Cc1csc(SCC(=O)Nc2cc(C)ccc2OC)n1 | > 100 µM (inactive) | > 100 | – |
